One data set deals with mouse. To be noted: Combined chronic toxicity/carcinogenicity, b6c3f1, Oral, Feed, dose end: 106 week, group: systemic.
Data set [1] relates to rat. To be noted: Combined chronic toxicity/carcinogenicity; fischer; Oral; Feed; dose end: 105 week; group: systemic; systemic / in life observation / body weight / body weight + systemic / pathology microscopic / kidney / nephropathy + systemic / pathology ….
For data set [2], the system named is rat. To be noted: Sub-acute repeat dose toxicity; sprague dawley; Oral; Gavage/Intubation; dose end: 1 week; group: systemic; systemic / in life observation / food consumption / food consumption + systemic / in life observation / water consumption / water ….
Data set [3] relates to rat. To be noted: Multigenerational reproductive toxicity study, sprague dawley, Oral, Gavage/Intubation, dose end: 1 generation.
The subject of a further data set is rabbit. Particulars: Prenatal developmental toxicity study, new zealand white, Oral, Gavage/Intubation, dose end: 28 GD.
For data set [4], the system named is rat. To be noted: Subchronic dermal toxicity, sprague dawley, Topical, dose end: 90 day, group: systemic, systemic / in life observation / clinical signs / desquamation + systemic / in life observation / clinical signs / erythema + systemic / in ….
Data set [5] concerns rat. Particulars: Subchronic oral toxicity in rodents, sprague dawley, Gavage/Intubation, dose end: 90 day, group: systemic.
Where [6] appears, read: systemic / in life observation / body weight / body weight.
Setting [7] is: systemic / in life observation / body weight / body weight + systemic / pathology microscopic / blood / lymphoma nos + systemic / pathology ….
Where [8] appears, read: group: parental, systemic / in life observation / clinical signs / fur (altered appearance) + systemic / in life observation / clinical signs / hunched ….
Where [9] appears, read: group: reproductive, reproductive / offspring survival early / dead fetuses / dead fetuses.
[10] abbreviates: group: developmental, developmental / developmental malformation / bone / malpositioned + developmental / developmental malformation / bone / supernumerary + ….
Setting [11] is: systemic / pathology microscopic / stomach / hyperplasia + systemic / in life observation / clinical signs / abnormal respiratory sounds + ….
[12] abbreviates: systemic / pathology microscopic / stomach / hyperplasia + systemic / pathology microscopic / stomach / edema + systemic / pathology ….

Usually LOAEL stands for the lowest tested level that showed an adverse finding. The term NOAEL denotes the highest tested level that showed no adverse finding. `c1ccc2n[nH]nc2c1` [1,2,3-Benzotriazole]: in the data set on mouse (setting [6]), the LOAEL was 1760 mg/kg/day and the NOAEL was under 1760 mg/kg/day. Also, in the data set on mouse (setting [7]), the LEL turned out to be 1760 mg/kg/day and the NEL was under 1760 mg/kg/day. For the same compound, in the data set with rat [1], the LEL amounted to 335 mg/kg/day, the LOAEL was 335 mg/kg/day, the NEL was under 335 mg/kg/day and the NOAEL was under 335 mg/kg/day.

`O=S1CCON=C1c1cc2ccccc2s1` (stereo not drawn) [Bethoxazin]: the LEL in the data set on rat [2] came to 50 mg/kg/day; in the data set on rat [3] (setting [8]), 10 mg/kg/day; with rat [3] (setting [9]), 70 mg/kg/day; in the data set on rabbit (group: developmental, developmental / developmental malformation / bone / supernumerary), 10 mg/kg/day; in the data set with rabbit (group: maternal, systemic / in life observation / body weight / body weight gain + systemic / in life observation / food consumption / food consumption + …), 30 mg/kg/day; in the data set on rat [4] it was 0.1 mg/kg/day. Also, the LEL in the data set on rat [5] (setting [12]) stood at 5 mg/kg/day. The LOAEL with rat [2] was 50 mg/kg/day; with rat [3] (setting [8]), 70 mg/kg/day; in the data set on rat [3] (setting [9]), over 70 mg/kg/day; in the data set on rabbit (setting [10]), 30 mg/kg/day; in the data set with rabbit (group: maternal, systemic / in life observation / body weight / body weight gain + systemic / in life observation / food consumption / food consumption), 30 mg/kg/day; in the data set with rat [4], 0.1 mg/kg/day. Also, in the data set on rat [5] (setting [12]), the LOAEL came to 5 mg/kg/day. The NEL is under 50 mg/kg/day in the data set with rat [2]; under 10 mg/kg/day in the data set on rat [3] (setting [8]); 30 mg/kg/day in the data set with rat [3] (setting [9]); 3 mg/kg/day in the data set with rabbit (setting [10]); under 0.1 mg/kg/day with rat [4]; 1.25 mg/kg/day in the data set with rat [5] (setting [11]). Further, the NOAEL is under 50 mg/kg/day with rat [2]; 30 mg/kg/day in the data set on rat [3] (setting [8]); at least 70 mg/kg/day in the data set with rat [3] (setting [9]); under 0.1 mg/kg/day in the data set on rat [4]; 1.25 mg/kg/day with rat [5] (setting [11]).
